Measured values from the supplement of paper PMC11451515.

Test system: SEM cells
Assay: cell viability relative to DMSO control; higher = less cytotoxic
Conditions: 48 h
In short: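 Viability, reported as a per-plate percentage of DMSO wells with cell-free wells as background, came from CellTiter-Glo One luminescence. Reading took place after 48 h at 37°C. Before that, NOMO1 or SEM (500 cells/well) or P12-Ichikawa (1000 cells/well) leukemia cells, adapted for at least four passages in each medium, were seeded in 1536-well plates (5 μl) and pin-dosed with library compounds in DMSO, 47 μM to 0.79 nM over 11 threefold points.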

[1] = HPLM + 10% dialyzed FBS, 0.000781 µM
[2] = HPLM + 10% dialyzed FBS, 0.00234 µM
[3] = HPLM + 10% dialyzed FBS, 0.00702 µM
[4] = HPLM + 10% dialyzed FBS, 0.0211 µM
[5] = HPLM + 10% dialyzed FBS, 0.0632 µM
[6] = HPLM + 10% dialyzed FBS, 0.19 µM
[7] = HPLM + 10% dialyzed FBS, 0.569 µM
[8] = HPLM + 10% dialyzed FBS, 1.71 µM
[9] = HPLM + 10% dialyzed FBS, 5.12 µM
[10] = HPLM + 10% dialyzed FBS, 15.4 µM
[11] = HPLM + 10% dialyzed FBS, 46.1 µM
[12] = RPMI 5 mM glucose + 10% FBS, 0.000781 µM
[13] = RPMI 5 mM glucose + 10% FBS, 0.00234 µM
[14] = RPMI 5 mM glucose + 10% FBS, 0.00702 µM
[15] = RPMI 5 mM glucose + 10% FBS, 0.0211 µM
[16] = RPMI 5 mM glucose + 10% FBS, 0.0632 µM
[17] = RPMI 5 mM glucose + 10% FBS, 0.19 µM
[18] = RPMI 5 mM glucose + 10% FBS, 0.569 µM
[19] = RPMI 5 mM glucose + 10% FBS, 1.71 µM
[20] = RPMI 5 mM glucose + 10% FBS, 5.12 µM
[21] = RPMI 5 mM glucose + 10% FBS, 15.4 µM
[22] = RPMI 5 mM glucose + 10% FBS, 46.1 µM
[23] = RPMI 5 mM glucose + 10% dialyzed FBS, 0.000781 µM
[24] = RPMI 5 mM glucose + 10% dialyzed FBS, 0.00234 µM
[25] = RPMI 5 mM glucose + 10% dialyzed FBS, 0.00702 µM
[26] = RPMI 5 mM glucose + 10% dialyzed FBS, 0.0211 µM
[27] = RPMI 5 mM glucose + 10% dialyzed FBS, 0.0632 µM
[28] = RPMI 5 mM glucose + 10% dialyzed FBS, 0.19 µM
[29] = RPMI 5 mM glucose + 10% dialyzed FBS, 0.569 µM
[30] = RPMI 5 mM glucose + 10% dialyzed FBS, 1.71 µM
[31] = RPMI 5 mM glucose + 10% dialyzed FBS, 5.12 µM
[32] = RPMI 5 mM glucose + 10% dialyzed FBS, 15.4 µM
[33] = RPMI 5 mM glucose + 10% dialyzed FBS, 46.1 µM

## COc1nc(-c2ccc3c(c2)OCO3)n(-c2ccc(NC(=O)CSc3ccccc3)cc2)n1
[1]
  cell viability: 118%
[2]
  cell viability: 97.1%
[3]
  cell viability: 106%
[4]
  cell viability: 112%
[5]
  cell viability: 114%
[6]
  cell viability: 103%
[7]
  cell viability: 117%
[8]
  cell viability: 98%
[9]
  cell viability: 110%
[10]
  cell viability: 98.5%
[11]
  cell viability: 98.9%
[12]
  cell viability: 113%
[13]
  cell viability: 104%
[14]
  cell viability: 117%
[15]
  cell viability: 102%
[16]
  cell viability: 107%
[17]
  cell viability: 108%
[18]
  cell viability: 94.2%
[19]
  cell viability: 95.5%
[20]
  cell viability: 95.8%
[21]
  cell viability: 101%
[22]
  cell viability: 86.7%
[23]
  cell viability: 96.4%
[24]
  cell viability: 108%
[25]
  cell viability: 122%
[26]
  cell viability: 119%
[27]
  cell viability: 119%
[28]
  cell viability: 102%
[29]
  cell viability: 89%
[30]
  cell viability: 105%
[31]
  cell viability: 118%
[32]
  cell viability: 99.7%
[33]
  cell viability: 82.9%

## COc1cc2nccc(Oc3ccc(NC(=O)Nc4ccc(F)cc4F)c(F)c3)c2cc1OC
[1]
  cell viability: 103%
[2]
  cell viability: 86%
[3]
  cell viability: 63.8%
[4]
  cell viability: 74.4%
[5]
  cell viability: 50.7%
[6]
  cell viability: 32.3%
[7]
  cell viability: 41.6%
[8]
  cell viability: 42.2%
[9]
  cell viability: 34.9%
[10]
  cell viability: 36.4%
[11]
  cell viability: 20%
[12]
  cell viability: 118%
[13]
  cell viability: 115%
[14]
  cell viability: 87.7%
[15]
  cell viability: 88.9%
[16]
  cell viability: 71.9%
[17]
  cell viability: 59%
[18]
  cell viability: 55.9%
[19]
  cell viability: 51.6%
[20]
  cell viability: 56.4%
[21]
  cell viability: 53.6%
[22]
  cell viability: 13.3%
[23]
  cell viability: 72.7%
[24]
  cell viability: 89%
[25]
  cell viability: 51.1%
[26]
  cell viability: 62.2%
[27]
  cell viability: 41.6%
[28]
  cell viability: 37%
[29]
  cell viability: 34.1%
[30]
  cell viability: 36.4%
[31]
  cell viability: 33.4%
[32]
  cell viability: 33.3%
[33]
  cell viability: 12.6%

## C#CCN(C)[C@H](C)Cc1ccccc1
[1]
  cell viability: 32.3%
[2]
  cell viability: 83.6%
[3]
  cell viability: 87.3%
[4]
  cell viability: 83.5%
[5]
  cell viability: 70.2%
[6]
  cell viability: 91.8%
[7]
  cell viability: 93.1%
[8]
  cell viability: 90.2%
[9]
  cell viability: 89.5%
[10]
  cell viability: 87.2%
[11]
  cell viability: 92.5%
[12]
  cell viability: 34.7%
[13]
  cell viability: 91.5%
[14]
  cell viability: 103%
[15]
  cell viability: 107%
[16]
  cell viability: 83.4%
[17]
  cell viability: 95.9%
[18]
  cell viability: 62.6%
[19]
  cell viability: 70.9%
[20]
  cell viability: 95.7%
[21]
  cell viability: 86.3%
[22]
  cell viability: 90.5%
[23]
  cell viability: 27.1%
[24]
  cell viability: 89.6%
[25]
  cell viability: 99.3%
[26]
  cell viability: 97.9%
[27]
  cell viability: 70.8%
[28]
  cell viability: 89.6%
[29]
  cell viability: 81.1%
[30]
  cell viability: 86.9%
[31]
  cell viability: 89.1%
[32]
  cell viability: 93.8%
[33]
  cell viability: 86%

## CN1C(=O)\C(=C/C(=C1/NC2=C(F)C=C(I)C=C2)C(=O)NOCCO)C
[1]
  cell viability: 92.4%
[2]
  cell viability: 107%
[3]
  cell viability: 106%
[4]
  cell viability: 91.8%
[5]
  cell viability: 91.7%
[6]
  cell viability: 78.7%
[7]
  cell viability: 67.8%
[8]
  cell viability: 67.5%
[9]
  cell viability: 77.2%
[10]
  cell viability: 70.6%
[11]
  cell viability: 72.9%
[12]
  cell viability: 97.1%
[13]
  cell viability: 102%
[14]
  cell viability: 93.9%
[15]
  cell viability: 99%
[16]
  cell viability: 76.9%
[17]
  cell viability: 72.7%
[18]
  cell viability: 82%
[19]
  cell viability: 86%
[20]
  cell viability: 84%
[21]
  cell viability: 70.8%
[22]
  cell viability: 65%
[23]
  cell viability: 109%
[24]
  cell viability: 91.8%
[25]
  cell viability: 98%
[26]
  cell viability: 78.3%
[27]
  cell viability: 77.7%
[28]
  cell viability: 60.4%
[29]
  cell viability: 72.3%
[30]
  cell viability: 68.1%
[31]
  cell viability: 63.2%
[32]
  cell viability: 59%
[33]
  cell viability: 67.8%

## O=C(NC1CCNCC1)c1n[nH]cc1NC(=O)c1c(Cl)cccc1Cl
[1]
  cell viability: 93%
[2]
  cell viability: 95.9%
[3]
  cell viability: 103%
[4]
  cell viability: 127%
[5]
  cell viability: 118%
[6]
  cell viability: 119%
[7]
  cell viability: 98.8%
[8]
  cell viability: 16.4%
[9]
  cell viability: 7.23%
[10]
  cell viability: 5.22%
[11]
  cell viability: 3.82%
[23]
  cell viability: 108%
[24]
  cell viability: 97.6%
[25]
  cell viability: 126%
[26]
  cell viability: 115%
[27]
  cell viability: 118%
[28]
  cell viability: 121%
[29]
  cell viability: 129%
[30]
  cell viability: 24.6%
[31]
  cell viability: 7.87%
[32]
  cell viability: 5.31%
[33]
  cell viability: 3.76%

## COc1ccc(Cc2nccc3cc(OC)c(OC)cc23)cc1OC
[1]
  cell viability: 105%
[2]
  cell viability: 126%
[3]
  cell viability: 111%
[4]
  cell viability: 131%
[5]
  cell viability: 126%
[6]
  cell viability: 124%
[7]
  cell viability: 127%
[8]
  cell viability: 128%
[9]
  cell viability: 134%
[10]
  cell viability: 121%
[11]
  cell viability: 88%
[12]
  cell viability: 110%
[13]
  cell viability: 125%
[14]
  cell viability: 117%
[15]
  cell viability: 120%
[16]
  cell viability: 131%
[17]
  cell viability: 130%
[18]
  cell viability: 118%
[19]
  cell viability: 109%
[20]
  cell viability: 123%
[21]
  cell viability: 110%
[22]
  cell viability: 53.9%
[23]
  cell viability: 109%
[24]
  cell viability: 107%
[25]
  cell viability: 110%
[26]
  cell viability: 110%
[27]
  cell viability: 99.5%
[28]
  cell viability: 109%
[29]
  cell viability: 105%
[30]
  cell viability: 118%
[31]
  cell viability: 94%
[32]
  cell viability: 111%
[33]
  cell viability: 54.3%

## Cc1cc(O)c2c3c4c(cc(O)c13)C(C)(C)C(=O)c1c(O)cc(O)c(c1-4)C2=O
[1]
  cell viability: 104%
[2]
  cell viability: 110%
[3]
  cell viability: 108%
[4]
  cell viability: 91.5%
[5]
  cell viability: 120%
[6]
  cell viability: 114%
[7]
  cell viability: 106%
[8]
  cell viability: 117%
[9]
  cell viability: 98.7%
[10]
  cell viability: 90.8%
[11]
  cell viability: 66.1%
[23]
  cell viability: 91.4%
[24]
  cell viability: 90.9%
[25]
  cell viability: 92%
[26]
  cell viability: 94.3%
[27]
  cell viability: 110%
[28]
  cell viability: 113%
[29]
  cell viability: 98%
[30]
  cell viability: 84.2%
[31]
  cell viability: 97.4%
[32]
  cell viability: 88.6%
[33]
  cell viability: 65.5%
